One may read the melting point as the temperature of the solid-liquid transition. Consider `CC(C)(Cc1ccccc1)C(NC(=O)c1cccc(Cl)c1)Nc1c(Nc2cccnc2)c(=O)c1=O` (single isomer, unassigned; (-)), for which the melting point was 178 to 179 °C.

As to `CCOC(=O)c1c(-c2ccccc2)c2ccc(Cl)cc2c(=O)n1C`, the melting point was 152 to 153 °C.

Regarding `O=C(CN1C(=O)c2ccccc2C1=O)Nc1cccc(C(F)(F)F)c1`, the melting point was determined as 235 °C.

The compound `NC(=O)N(CCCOc1ccc(C(=O)O)cc1)c1ccc(Cl)cc1` came in with a melting point of 172 to 174 °C.

With `CCC12CCC3=C(CCc4cc(O)ccc43)C1=CCC2=O` (stereo unspecified), the melting point is 153 to 156 °C.

`CSc1c(Cl)nc(N2CCNCC2)nc1NC(C)C` gave a melting point of 147 °C.

Turning to `CN(C)C(=O)N[C@H]1CC[C@H](CCN2CCN(c3nccc4c3CCO4)CC2)CC1`, the melting point came out at 260 °C.

Turning to `CCOC(=O)c1c(C(F)(F)F)nc(C(F)F)c(C(=O)OC)c1N1CC1`, the melting point was 92 to 95 °C.

Compound `COc1cccc2c1C(C)(C)c1ccccc1C2` registered a melting point of 62 to 64 °C.

Regarding `N#Cc1cnn(-c2c(Cl)cc(SC(F)(F)F)cc2Cl)c1N`, the melting point lay in the range of 185 to 187 °C.

The compound `Cn1cc(-c2ccccc2)c(=S)c(-c2cccc(Br)c2)c1` had a melting point of 185 to 188 °C.

Compound `Cc1ccc(S(=O)(=O)N2CCC[C@H]2C(=O)N[C@@H](Cc2ccc(OCCCN3CCN(C)CC3)cc2)C(=O)O)cc1` displayed a melting point of 80 to 83 °C.

The compound `Cc1ncn2c1CN(C)C(=O)c1ccccc1-2` came in with a melting point of 184 to 186 °C.

The compound `O=C(O)c1cn(-c2cc(F)cc(C(F)(F)F)c2)cn1` returned a melting point of more than 250 °C.

`O=C1COc2ccc(-c3cnn(CC(F)(F)F)c3-c3ccc(F)cc3)cc2N1` registered a melting point of 227 °C.

In the case of `COc1ccccc1Cc1c(N)nc(SCCCN2CCN(C(C)=O)CC2)nc1N`, the melting point lay within 208 to 209 °C.

Compound `COC1CN(C(=O)c2cc(-c3ccccc3)c(=O)n3c2-c2sccc2C3)C1` came in with a melting point of 192 to 193 °C.

`C#Cc1ccc(CO[C@@H]2COc3nc([N+](=O)[O-])cn3C2)nc1`: the melting point lay in the range of 135 to 136 °C.

On to `C#CCCn1ncc2c(N)c(C(=O)OCC=C)c(C)nc21`, for which the melting point was in the range of 115 to 116 °C.

Take `CCCn1c(=O)[nH]c2cnc(-c3ccccc3)nc21`: the melting point fell in the range of 263 to 264 °C.

Compound `CN1Cc2ccccc2[C@H]2c3cccc4[nH]cc(c34)C[C@@H]21` (relative stereo) had a melting point of 215 °C.

With `O=S(=O)(Nc1cccc(CCOCc2csc(-c3ccc(C(F)(F)F)cn3)n2)c1)C(F)(F)F`, the melting point lay within 116 to 117 °C.

In turn, `N=C(Nc1nc(-c2ccccn2)nc2ccccc12)C(F)(F)F` gave a melting point of 189 °C.

On to `CC1(C)Oc2ccc(C#N)cc2[C@@H](NC(=O)Nc2cccc(CC(=O)O)c2)[C@@H]1O`, for which the melting point was 135 to 138 °C.

Turning to `COc1ccccc(NS(=O)(=O)c2ccc(C)cc2)c1=O`, the melting point was in the range of 163 to 164 °C.

`CCOC(=O)Cc1ccc([N+](=O)[O-])c(OCC(F)(F)F)c1` gave a melting point of 76 to 77 °C.

The compound `CC(=O)OCC1OC(n2c(Br)c(C=O)c3cc(Cl)c(Cl)cc32)C(O)C1O` (stereo unspecified) returned a melting point of 159 to 160 °C.

As to `O=c1[nH]c2cc(C(F)(F)F)c([N+](=O)[O-])c(Cl)c2[nH]c1=O`, the melting point lay in the range of 343 to 347 °C.

Take `CCOc1cc(-c2cc(C(F)(F)F)n3ncc(C(=O)Nc4cccc(S(N)(=O)=O)c4)c3n2)ccc1C(F)(F)F`: the melting point turned out to be 253 °C.

In the case of `O=[N+]([O-])c1cc2c(c([N+](=O)[O-])c1)CCCC2`, the melting point amounted to 93 °C.

`O=C(Nc1ncc(C(F)(F)F)o1)C1c2ccccc2Oc2c(F)cccc21` (racemic) yielded a melting point of 228 °C.

On to `CC(=O)C1CCC2C3CCC4CC(OC(=O)C(Cl)(Cl)Cl)CCC4(C)C3C(=O)CC12C` (stereo unspecified), for which the melting point is 126 to 127 °C.

Compound `Nc1c(F)c(F)nc(F)c1Cl` registered a melting point of 118 to 120 °C.

`CN(Cc1cc(C(F)(F)F)cc(C(F)(F)F)c1)C(=O)c1cnc2ccc(Cl)cc2c1-c1ccccc1` returned a melting point of 105 to 106 °C.

Take `CS(=O)(=O)c1ccc2c(c1)C=C(C(=O)O)C(C(F)(F)F)O2` (stereo unspecified): the melting point lay within 208 to 212 °C.

Turning to `c1ccc(C2(Cc3ccncc3)c3ccccc3-c3sccc32)cc1` (stereo unspecified), the melting point is 88 to 92 °C.

Consider `CCOC(=O)c1nn(Cc2ccc(Cl)cc2C)c2ccccc12`, for which the melting point lay in the range of 120 to 122 °C.

The compound `CCOC(=O)CSc1nc(Cl)c(C)c(NCc2ccc(Cl)cc2)n1` came in with a melting point of 114 to 117 °C.

`CN1CCN(Cc2nnc3n2CC(=O)N(C)c2ccc(Cl)cc2-3)CC1`: the melting point was in the range of 228 to 230 °C.

In the case of `CCOC(=O)CCCCCN(C)S(=O)(=O)C1=C(C)NC(C)=C(C(=O)OC)C1c1cccc([N+](=O)[O-])c1` (stereo unspecified), the melting point lay in the range of 83 to 86 °C.

Compound `Cc1nn(-c2cccnc2)cc1I` had a melting point of 131 °C.

Consider `COc1cccc(COC(=O)c2ncn3c2[C@@H]2CCN2C(=O)c2c(Cl)cccc2-3)c1`, for which the melting point was 126 to 127 °C.

`CC(C)=CCC(O)C(C)C1CC=C2C3=C(CCC21C)C1(C)CCC(O)C(C)(C)C1CC3` (stereo unspecified) yielded a melting point of 70 to 72 °C.

In the case of `O=C(N[C@H](Cc1ccc(C(F)(F)F)cc1)[C@H](O)c1ccc(F)cc1)c1cccc2ccccc12` (racemic), the melting point lay within 134 to 135 °C.

`Cc1ccc2c(c1)N=C(N1CCN(C)CC1)c1cccc3c1N2CC3`: the melting point was in the range of 160 to 162 °C.

In the case of `Cc1ccc(Nc2c([N+](=O)[O-])cc(C(=O)O)cc2S(N)(=O)=O)c(C)c1`, the melting point was 224 to 226 °C.

Take `O=C(Nc1cccc(C(F)(F)F)c1)N1CCc2cc(Oc3cc(Cl)ncn3)ccc21`: the melting point stood at 181 °C.

Regarding `CC(C)CC(NC(=O)Cc1ccc(NC(=O)Nc2c(Cl)cccc2Cl)cc1)c1ncc(CCC(=O)O)s1` (stereo unspecified), the melting point is 148 to 150 °C.

As for `CCOC(=O)N1c2cc(OC)c(OC)cc2C(=O)CC1C` (stereo unspecified), the melting point was 94 to 95 °C.

As to `Cc1cccc(COc2cccnc2NC(=S)Nc2ccc(Cl)cc2)c1F`, the melting point was 184 to 187 °C.

The compound `O=C(O)C(c1ccc(Cl)cc1)C1CC1` (stereo unspecified) came in with a melting point of 95 to 96 °C.

Turning to `FC(F)(F)c1cc(-c2ccc(Cl)nn2)ccc1Cl`, the melting point was in the range of 211 to 214 °C.

In turn, `CCc1ccc(CC)n1Nc1ccc(N2CCOCC2)nn1` had a melting point of 186 to 189 °C.

In turn, `CCCC=C1SC(=S)N(N=c2sc3ccccc3s2)C1=O` displayed a melting point of 236 to 238 °C.

With `CCOC(=O)C(C)(C)Oc1ccc(-c2ccc(CCNC(=O)c3c(OC)cccc3OC)cc2)cc1`, the melting point is less than 20 °C.

Consider `Nc1nc2ccccc2c2c1ncn2C1CC(O)C(CO)O1` (stereo unspecified), for which the melting point was in the range of 232 to 237 °C.

`CCOc1nc2c(N)nc(OCCc3ccccc3)nc2n1CC` displayed a melting point of 161 to 164 °C.

In turn, `O=C(O)CNC(=O)CCc1cccc(-c2nc(=O)c3ccccc3s2)n1` registered a melting point of 219 to 220 °C.

As to `COc1ccc(S(=O)(=O)N2C(=O)C(c3ccccc3OC)(N3Cc4ccccc4C3C(=O)N(C)C)c3cc(Cl)ccc32)c(OC)c1` (stereo unspecified), the melting point stood at 168 °C.

`CCSc1cc(C(C)C)ccc1N(CC)c1nc(C)cc(C)n1` came in with a melting point of 128 to 130 °C.

Take `CC(Oc1ccc(Oc2ncc(Cl)cc2F)cc1)C(=O)Nc1ccc(OC(F)(F)F)cc1` (stereo unspecified): the melting point was in the range of 92 to 93.5 °C.

With `Cn1nc(-c2ccccc2)nc1-c1ccncc1`, the melting point is 132 to 134 °C.

The compound `Cc1cc(C#Cc2ccc(F)cc2)nc(Oc2cc(C(F)(F)F)nn2C)c1` gave a melting point of 86 to 87 °C.

`Cc1cc(O)c([N+](=O)[O-])c(=O)n1CC(=O)O` had a melting point of 205 °C.

`CCCCn1c(=O)[nH]c(=O)c2c3n(nc21)CCN3` registered a melting point of 239 to 240 °C.

`COc1ccc(-n2nc(Sc3ccc([N+](=O)[O-])cc3)c(C)c(C#N)c2=O)cc1` had a melting point of 258 to 260 °C.

The compound `COc1ccc(COc2c(C)c(C)c3c(c2C)C(c2ccc(C(C)C)cc2)C(C)(C)O3)cc1` (stereo unspecified) yielded a melting point of 95 to 96 °C.

In the case of `COc1ccc(COc2cc(C)nc3c(O)cccc23)cc1OC`, the melting point was 129 to 131 °C.

In turn, `C1=Nc2c(cnc3ccccc23)OC12CCCCC2` came in with a melting point of 164 to 165 °C.

In turn, `CCOC(=O)CN1C(=O)C2(COc3cc4c(cc32)OCCO4)c2ccccc21` (stereo unspecified) yielded a melting point of 58 to 59 °C.

With `COc1ccc(SCCCCCCCC(=O)O)cc1`, the melting point lay within 66 to 68 °C.

Regarding `Nc1ccc(OCc2cscn2)cc1`, the melting point lay within 114 to 115 °C.

`O=C(c1ccccc1)N1CCOC(CCOS(=O)(=O)c2ccccc2)(c2ccc(F)c(F)c2)C1` (single isomer, unassigned; (+)) gave a melting point of 82.8 °C.

`CC1(C)CCC(C)(C)c2cc(CC#Cc3ccc(C(=O)N4CCOCC4)cc3)ccc21` came in with a melting point of 98 to 99 °C.

For `CC1(C)NC(=O)N(c2ccc(Oc3ccccc3)cc2)C1=O`, the melting point was 165 °C.

As to `Cc1cncc2ncc(-c3ccccc3)cc12`, the melting point fell in the range of 135 to 138 °C.

With `CC1(C)Oc2ccc(OCc3ccccc3)cc2C(O)C1Br` (stereo unspecified), the melting point fell in the range of 126 to 128 °C.

`CC(C)(C)Sc1c(CC(C)(C)C(=O)O)n(Cc2ccc(Cl)cc2)c2ccc(OCc3ccc4ccccc4c3)cc12` returned a melting point of 213 to 214 °C.

`CCCC(Cl)(Cl)C(NC(=O)c1ccc(Cl)cc1)NC(=N[N+](=O)[O-])Nc1cccnc1` (stereo unspecified): the melting point was in the range of 198 to 200 °C.

Compound `CCc1cc(Br)cc(CC)c1N=C(c1ccccc1)c1ccccc1` came in with a melting point of 112 °C.

In turn, `O=C(Nc1ccccc1)OCC1(COC(=O)Nc2ccccc2)CS(=O)(=O)c2ccccc2C1=O` came in with a melting point of 72 to 78 °C.

For `O=C(O)C1=Cc2cc(C(F)(F)C(F)(F)F)ccc2OC1C(F)(F)F` (stereo unspecified), the melting point lay within 162 to 165 °C.

Consider `Clc1nc(NCc2ccc(-c3ccccn3)cc2)c2[nH]cnc2n1`, for which the melting point is more than 250 °C.

`CCOC(=O)C1=C(C)Nc2nc(N)nc(N)c2C1c1cccnc1` (stereo unspecified): the melting point is 224 °C.

For `COc1ccc(-c2nc(-c3cccn3CC(=O)OCC(C)C)sc2-c2ccc(OC)cc2)cc1`, the melting point lay in the range of 106 to 108 °C.

On to `N#Cc1ccc2c(c1)C1OC1C1(CCCCC1)O2` (stereo unspecified), for which the melting point lay within 222 to 225 °C.

These data come from a melting point compilation (Tetko et al.; mined from patent text by program, amines drawn as free bases though some values may be those of a salt).
